Reference: patent publication US8951995B2, “Use of 24-nor-UDCA” (Medizinische Universitat Graz, priority 2005, dated 2015)
Read-outs that look alike come from different tables or passages of the source.

Columns and labels:
Mdr2−/− mice [1] = test: Routine serum biochemistry in bile acid-fed Mdr2−/− mice; type: in vivo; settings: Mdr2−/− mice fed 0.5% w/w in diet for 4 weeks, mean ± SD, n = 5
Protocol: (§1) Two months-old Mdr2^−/− (a time point when sclerosing cholangitis is already fully established in these animals (Fickert, Zollner, et al. 2002) were either fed a diet supplemented with norUDCA (0.5%, w/w) or UDCA as a clinical comparator (0.5%, w/w) for 4 weeks and compared to standard-diet-fed Mdr2^−/− and wild type controls.
Serum samples were stored at −70° C. until analysis of alanine transaminase (ALT) and alkaline phosphatase (AP) by routine clinical chemistry performed on a Hitachi 717 analyzer (Boehringer Mannheim, Mannheim, Germany). For determination of total serum bile acid levels, a commercial 3-alpha-hydroxysteroid dehydrogenase assay (Ecoline S+; DiaSys, Holzheim, Germany) was used.

Mdr2−/− mice [2] = test: Liver histology (H&E, Sirius red) in bile acid-fed Mdr2−/− mice; type: in vivo
Source text: as §1
For conventional light microscopy, livers were fixed in 4% neutral buffered formaldehyde solution and embedded in paraffin. Sections (4 μm thick) were stained with H&E and Sirius red stain, respectively. The sections were coded and examined by a pathologist (H. D.) unaware of the animals' treatment.

Mdr2−/− mice [3] = test: Hepatic hydroxyproline content; type: in vivo; settings: Mdr2−/− mice fed 0.5% w/w for 4 weeks, vs control diet-fed KO; FIG. 2
Protocol: as §1
To quantify liver fibrosis in our model hepatic hydroxyproline content was determined. The right liver lobe was homogenized in 6-normal HCl (200 mg liver tissue/4 ml HCl) and hydrolyzed at 110° C. for 16 h. After filtration 50 μl were added to 450 μl 2.2% NaOH dissolved in citrate-acetate buffer (50 g citric acid×H2O, 12 ml acidic acid, 120 g sodium acetate×3H2O, 34 g NaOH ad 1 liter distilled water; pH 6.0). After adding 250 μl perchloric acid and 12 min incubation at room temperature 250 μl p-dimethylaminobenzaldehyde solution was added and incubated at 60° C. for 20 min. Hydroxyproline content was measured at 565 nm using a hydroxyproline standard curve.

[4] = test system: portal neutrophils (CD11b-positive cells); test: Immunohistochemistry for neutrophils marker CD-11b; type: in vivo; settings: Mdr2−/− mice fed 0.5% w/w for 4 weeks, vs standard diet-fed KO; FIG. 3
Source text: as §1
To quantify neutrophils CD 11b-positive cells were detected as described previously (Fickert, Fuchsbichler, et al. 2004) with the modification that binding of the antibody was detected using the ABC system (Dako) using AEC (Dako) as substrate. Number of neutrophils was calculated by counting positive cells in 20 portal fields in sections of 3 animals in each group.

VCAM = test: Immunohistochemistry for vascular cell adhesion molecule (VCAM); type: in vivo; settings: interlobular and lobular bile ducts, Mdr2−/− mice fed 0.5% w/w for 4 weeks; FIG. 4
Protocol: as §1
Immunohistochemistry for VCAM was performed on acetone fixed cryosections using the monoclonal rat anti CD106 (VCAM-1, dilution 1:30, PharMingen, San Diego, Calif., USA) and binding of the antibody was detected using the ABC system (Dako) using AEC (Dako) as substrate.

[5] = test system: hepatocytes and cholangiocytes; test: Immunohistochemistry for proliferation marker Ki-67; type: in vivo; settings: Mdr2−/− mice fed 0.5% w/w for 4 weeks; FIG. 5
Protocol: as §1
Immunohistochemistry for Ki-67 was performed on microwave-treated ([…] citrate buffer pH 6.0) paraffin sections (4 μm thick) using a polyclonal rabbit anti-Ki-67 antibody (dilution 1:750, Novocastra, Newcastle upon Tyne, UK). Binding of the antibody was detected using the ABC system (Dako) using AEC (Dako) as substrate. Number of proliferating hepatocytes was calculated by counting positive nuclei in 30 high power fields in sections of 3 animals in each group. Number of proliferating bile duct epithelial cells was calculated by counting positive nuclei in 20 portal fields in sections of 3 animals in each group.

Mdr2−/− mice [6] = test: Bile flow and biliary excretion measurement; type: in vivo; settings: Mdr2−/− mice fed 0.5% w/w for 4 weeks, mean ± SD; for Bile flow: normalized to liver weight
Protocol: as §1
Bile flow was determined gravimetrically and normalized to liver weight as described previously (Fickert, Zollner, et al. 2001). Biliary phospholipids concentration was determined using a commercially available kit (Phospholipid B; Wako, Neuss, Germany) according to the manufacture's instructions. Biliary cholesterol concentration was determined using a commercial available kit (Cholesterol liquicolor; Human, Wiesbaden, Germany) according to the manufacture's instructions. Biliary gluthathione (GSH) concentration was determined after protein precipitation in 5% metaphosphoric acid using the Glutathione Assay Kit (Calbiochem, San Diego, US) according to the manufacturer's instructions. Biliary bile acid concentration was analyzed using a 3-alpha-hydroxysteroid dehydrogenase assay (Ecoline St, DiaSys) according to the manufacturer's instructions.

Cyp2b10 = test: Real-time PCR, relative expression of Cyp2b10; type: in vivo; settings: liver mRNA, Mdr2−/− mice fed 0.5% w/w for 4 weeks; KO = 100; mean ± SD, n = 5
Protocol: as §1
(§2) RNA isolation, cDNA synthesis and Taqman® real time PCR were performed as described previously (Wagner, Fickert, et al. 2003). The following primers and 5′ FAM, 3′ TAMRA labeled probes were used: Col1a1 fwd: […] (Seq ID No. 35), Col1a1 rev: […] (Seq ID No. 36) and Col1a1 probe: […] (Seq ID No. 37); TIMP-1 fwd: […] (Seq ID No. 38), TIMP-1 rev: […] (Seq ID No. 39) and TIMP-1 probe: […] (Seq ID No. 40); MMP-2 fwd: […] (Seq ID No. 41), MMP-2 rev: […] (Seq ID No. 42) and MMP-2 probe: […] (Seq ID No. 43).

Cyp3a11 = test: Real-time PCR, relative expression of Cyp3a11; type: in vivo; settings: liver mRNA, Mdr2−/− mice fed 0.5% w/w for 4 weeks; KO = 100; mean ± SD, n = 5
Protocol: as §1, §2

Sult2a1 = test: Real-time PCR, relative expression of Sult2a1; type: in vivo; settings: liver mRNA, Mdr2−/− mice fed 0.5% w/w for 4 weeks; KO not detectable, KO + UDCA = 100; mean ± SD, n = 5
Protocol: as §1, §2

Ugt1a1 = test: Real-time PCR, relative expression of Ugt1a1; type: in vivo; settings: liver mRNA, Mdr2−/− mice fed 0.5% w/w for 4 weeks; KO = 100; mean ± SD, n = 5
Protocol: as §1, §2

Cyp7a1 = test: Real-time PCR, relative expression of Cyp7a1; type: in vivo; settings: liver mRNA, Mdr2−/− mice fed 0.5% w/w for 4 weeks; KO = 100; mean ± SD, n = 5
Protocol: as §1, §2

Mrp3 = test: Real-time PCR, relative expression of Mrp3; type: in vivo; settings: liver mRNA, Mdr2−/− mice fed 0.5% w/w for 4 weeks; KO = 100; mean ± SD, n = 5
Protocol: as §1, §2

Mrp4 = test: Real-time PCR, relative expression of Mrp4; type: in vivo; settings: liver mRNA, Mdr2−/− mice fed 0.5% w/w for 4 weeks; KO = 100; mean ± SD, n = 5
Protocol: as §1, §2

collagen 1 and 3 mRNA = test: Hepatic collagen 1 and 3 mRNA expression; type: in vivo; settings: Mdr2−/− mice fed 0.5% w/w for 4 weeks
Protocol: as §1, §2

Ntcp, Oatp1, Bsep, Mrp2 = test: mRNA expression of hepatocellular uptake and canalicular efflux systems; type: in vivo; settings: Mdr2−/− mice fed 0.5% w/w for 4 weeks; data not shown
Protocol: as §1, §2

[7] = norUDCA metabolism and excretion in mice; type: in vivo
[8] = Estimated choleretic potency in mice; type: in vivo; settings: relative to normal bile flow
[9] = cited from earlier work
[10] = humans, relative to normal bile flow; cited from earlier work
[11] = rats; cited from earlier work
[12] = Mdr2−/− mice fed 0.5% w/w for 4 weeks

SMILES: C[C@H](CC(=O)O)[C@H]1CC[C@H]2[C@@H]3[C@@H](O)C[C@@H]4C[C@H](O)CC[C@]4(C)[C@H]3CC[C@]12C [norUDCA, 3-alpha,7-alpha-dihydroxy-24-nor-5-beta-cholan-23-oic acid]
- ALT (Mdr2−/− mice [1]): 165 ± 23 U/L
- AP (Mdr2−/− mice [1]): 162 ± 25 U/L
- Bili (Mdr2−/− mice [1]): 0.23 ± 0.2
- Ductular proliferation (Mdr2−/− mice [2]; [12]): virtually absent
- Large bile duct disease (H&E staining) (Mdr2−/− mice [2]; Mdr2−/− mice fed 0.5% w/w for 4 weeks, vs control diet-fed KO, FIG. 1A): absent
- Fibrosis with periductal collagen fibers (Sirius red staining) (Mdr2−/− mice [2]; Mdr2−/− mice fed 0.5% w/w for 4 weeks, vs control diet-fed KO, FIG. 1C): even more pronounced reduction
- Sclerosing cholangitis (Mdr2−/− mice [2]; Mdr2−/− mice, model for PSC, within 4 weeks): cures sclerosing cholangitis
- Hepatic hydroxyproline content (Mdr2−/− mice [3]): reduced to baseline levels
- Number of portal neutrophils (CD11b-positive cells per 20 portal fields) / portal inflammation [4]: significantly reduced number of portal neutrophils
- VCAM expression in bile duct epithelial cells (VCAM): significantly lower VCAM expression
- Proliferation of bile duct epithelial cells / cholangiocytes (Ki-67 positive) [5]: significantly reduced the degree of hepatocyte and bile duct epithelial cell proliferation to nearly wild type control levels
- Proliferation of hepatocytes (Ki-67 positive) [5]: significantly reduced the degree of hepatocyte and bile duct epithelial cell proliferation to nearly wild type control levels
- Biliary excretion of bicarbonate (Mdr2−/− mice [6]): 98.8 ± 14.6 nmol/g/min
- Biliary excretion of bile acids (Mdr2−/− mice [6]): 29.5 ± 2.3 nmol/g/min
- Biliary excretion of cholesterol (Mdr2−/− mice [6]): 0.2 ± 0.04 nmol/g/min
- Biliary excretion of glutathione (Mdr2−/− mice [6]): 5.8 ± 1.2 nmol/g/min
- Biliary excretion of phospholipids (Mdr2−/− mice [6]): 0.3 ± 0.1 nmol/g/min
- Bile flow (Mdr2−/− mice [6]): 3.5 ± 0.3 µL/g/min
- Relative expression level of Cyp2b10 (Cyp2b10): 1294 ± 418
- Relative expression level of Cyp3a11 (Cyp3a11): 241 ± 45
- Relative expression level of Sult2a1 (Sult2a1): 24157 ± 14948
- Relative expression level of Ugt1a1 (Ugt1a1): 304 ± 81
- Relative expression level of Cyp7a1 (Cyp7a1): 60 ± 30
- Relative expression level of Mrp3 (Mrp3): 207 ± 73
- Relative expression level of Mrp4 (Mrp4): 590 ± 193
- Hepatic collagen 1 and 3 mRNA expression (collagen 1 and 3 mRNA): significant reduction
- mRNA expression of hepatocellular uptake (Ntcp, Oatp1) and canalicular efflux (Bsep, Mrp2) systems (Ntcp, Oatp1, Bsep, Mrp2): no significant effects
- Major metabolite of norUDCA ([7]; mice): glucuronide
- Renal excretion of norUDCA ([7]; mice): considerable renal excretion
- Bile acid sulfates and glucuronides in urine ([7]; norUDCA fed Mdr2−/− mice): appearance of bile acid sulfates and glucuronides in urine
- Estimated choleretic potency [8]: about three times above that of normal bile flow
- Renal excretion of norUDCA ([9]; humans (men)): considerable renal excretion
- Major metabolite of norUDCA ([9]; humans): glucuronide
- Estimated choleretic potency [10]: about three times above that of normal bile flow
- Induced bile flow [11]: 0.16 mL/min/kg

SMILES: C[C@H](CCC(=O)O)[C@H]1CC[C@H]2[C@@H]3[C@@H](O)C[C@@H]4C[C@H](O)CC[C@]4(C)[C@H]3CC[C@]12C [UDCA, Ursodeoxycholic acid]
- ALT (Mdr2−/− mice [1]): 576 ± 175 U/L
- AP (Mdr2−/− mice [1]): 399 ± 73 U/L
- Bili (Mdr2−/− mice [1]): 0.55 ± 0.19
- Animals showing bile infarcts (Mdr2−/− mice [2]; [12]): 2 out of 5
- Biliary excretion of bicarbonate (Mdr2−/− mice [6]): 67.1 ± 10.0 nmol/g/min
- Biliary excretion of bile acids (Mdr2−/− mice [6]): 37.2 ± 7.6 nmol/g/min
- Biliary excretion of cholesterol (Mdr2−/− mice [6]): 0.3 ± 0.1 nmol/g/min
- Biliary excretion of glutathione (Mdr2−/− mice [6]): 5.6 ± 1.1 nmol/g/min
- Biliary excretion of phospholipids (Mdr2−/− mice [6]): 0.3 ± 0.03 nmol/g/min
- Bile flow (Mdr2−/− mice [6]): 2.4 ± 0.3 µL/g/min
- Relative expression level of Cyp2b10 (Cyp2b10): 751 ± 245
- Relative expression level of Cyp3a11 (Cyp3a11): 246 ± 72
- Relative expression level of Sult2a1 (Sult2a1): 100 ± 46
- Relative expression level of Ugt1a1 (Ugt1a1): 137 ± 55
- Relative expression level of Cyp7a1 (Cyp7a1): 9 ± 4
- Relative expression level of Mrp3 (Mrp3): 194 ± 55
- Relative expression level of Mrp4 (Mrp4): 357 ± 95
